Holding throughout (type): cell-based
One assay addresses T1, COX2 (Homo sapiens, UniProt P35354).
T1 construct: endogenous in cells; host or cells: primary human monocytes treated with LPS
Briefly: COX2 mediated PGE2 release in LPS-treated primary monocytes. The following applies: 100 µM, monocytes + LPS + arachidonic acid. As for the experimental part: the wound closure was determined as the difference between wound width at times 0 and 72h. This experiment was repeated three times.
Human primary monocytes were isolated from buffy coats of healthy human blood donors and seeded in 24-well plates (500,000 cells/ml in 1ml) for COX-1/2 activity or 96-well plates for cell viability experiments.
Cells were seeded in 96 well plates (5,000 cells/well in 200µl) for cytotoxicity testing (Alamar […]
doses). After 24h, cytotoxicity was evaluated in the wells using the Alamar Blue method. NaF (250µg/ml) was used as a control in this experiment.
Cyclooxygenase (COX) activity
COX1 mediated prostaglandin E2 (PGE2) release. Monocytes were treated with arachidonic […]
were then collected for the determination of PGE2 by enzyme immunoassay (EIA) […]
COX2 mediated prostaglandin E2 (PGE2) release. Monocytes were incubated with LPS (10U/ml) for 24h to induce COX2 protein synthesis. After renewal of medium (serum free), […]
before AA treatment. The activity of COX2 was determined by measuring PGE2 (Cayman) in the supernatants by EIA. Aspirin (10µM) and diclofenac (10µM) were used as control […]
NaF (250µg/ml) was used as a control (relative light unit, r.l.u). (c) Monocytes were treated […]
GPN136 (grey bars). The activity of COX1 was determined by measuring prostaglandin E2 (PGE2). […]
of COX2 was determined by measuring PGE2. […]

A further assay deals with T2, mouse CCL22 (Mus musculus, UniProt O88430).
T2 construct: purchased R&D systems
Briefly: Calcium responses induced by mouse CCL22, neutraligand protocol, CCR4+Gqi5+ HEK cells. The note with it: 5 nM mouse CCL22 preincubated 1 h with compound; read-out: IC50, inhibition of mouse CCL22-evoked calcium responses. As for the experimental part:
Dye loaded cells were placed in the FlexStation 3 (Molecular Devices). Calcium mobilization was measured at 401 and 475 nm emission fluorescence after excitation at 355 nm. For the primary screening, the ligands (50μl of chemokine mixed with DMSO or test compounds) were added to the cells at 40 s, followed by digitonin addition (50μl) at 100 s to the cells. Molecules were screened at a final concentration of 2μg/ml with 5 nM CCL17 or CCL22. […] Raw fluorescence data (at 401 and 475 nm) were exported and the ratio 401/475 was calculated. The calcium response values (height of peak response over baseline) were determined. Hits were selected by comparing the response amplitude at the time of the chemokine addition ± test compound. The Z’ factor[29] was calculated according to the following equation: Z’ = 1-(3SD+ + 3SD−)/|Ave+ − Ave−|, where SD+ and Ave+ are respectively the standard deviation and the mean value of the positive controls (chemokine + DMSO), while SD− and Ave− are respectively the standard deviation and the mean value of the negative controls (HEPES-BSA (0.1%) mixed with DMSO, or cells mixed with C-021). Hit molecules were confirmed by performing concentration-response curves and their half maximal inhibitory concentration (IC50) values were calculated using the Kaleidagraph software. […]
neutraligand. Human (○) or mouse (●) CCL17 (5nM) was preincubated with increasing […]

The next assay concerns the target T3, CCL22 (Homo sapiens, UniProt O00626).
T3 construct: codes for the mature CCL17 or CCL22 with an N-terminal thioredoxin-hexahistidin (TRX- (His)6) tag; thioredoxin (TRX) (N, cleaved yes); (His)6 (N, cleaved yes); made in house; host or cells: E. coli BL21 (DE3)
T3 sequence (O00626 25-93): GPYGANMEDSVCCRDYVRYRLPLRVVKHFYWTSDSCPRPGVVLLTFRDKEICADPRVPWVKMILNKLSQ
Briefly: Scratch wound assay, CCL22-mediated HaCat cell migration. The note with it: HaCat cells, 72 h, read-out: inhibition of CCL22-mediated wound closure. As for the experimental part:
soluble formazan dye which can be detected by absorbance at 420-480nm. HUT78 T cells (or HaCat cells) were seeded on 24-well plates (200,000 cells per well) and were incubated […]
concentration ≤1% on cells). The background control was reserved as one well containing the culture medium only. The plates were incubated for 72h at 37°C. Three days later, the medium containing the neutraligands was removed, and WST-1 reagent (1:10 final dilution) (Ozyme) was added to each well for a 2h incubation at 37°C as the manufacturer’s recommendation. The plates were shaken and absorbance was measured at 450nm (reference wavelength 690nm) against the background control, using a multiwell plate reader (EnVision, Perkin Elmer). Assays were performed as three independent replicates.
In vitro cell migration assay (scratch wound test) […]
the wound closure was determined as the difference between wound width at times 0 and 72h. […]
doses). After 24h, cytotoxicity was evaluated in the wells using the Alamar Blue method. […]
before AA treatment. The activity of COX2 was determined by measuring PGE2 (Cayman) in the supernatants by EIA. […]

For orientation: IC50 means the concentration needed to halve the response being measured. One may read the inhibition as the drop in the measured response relative to a control, in per cent.

T1 sequence (P35354 18-604): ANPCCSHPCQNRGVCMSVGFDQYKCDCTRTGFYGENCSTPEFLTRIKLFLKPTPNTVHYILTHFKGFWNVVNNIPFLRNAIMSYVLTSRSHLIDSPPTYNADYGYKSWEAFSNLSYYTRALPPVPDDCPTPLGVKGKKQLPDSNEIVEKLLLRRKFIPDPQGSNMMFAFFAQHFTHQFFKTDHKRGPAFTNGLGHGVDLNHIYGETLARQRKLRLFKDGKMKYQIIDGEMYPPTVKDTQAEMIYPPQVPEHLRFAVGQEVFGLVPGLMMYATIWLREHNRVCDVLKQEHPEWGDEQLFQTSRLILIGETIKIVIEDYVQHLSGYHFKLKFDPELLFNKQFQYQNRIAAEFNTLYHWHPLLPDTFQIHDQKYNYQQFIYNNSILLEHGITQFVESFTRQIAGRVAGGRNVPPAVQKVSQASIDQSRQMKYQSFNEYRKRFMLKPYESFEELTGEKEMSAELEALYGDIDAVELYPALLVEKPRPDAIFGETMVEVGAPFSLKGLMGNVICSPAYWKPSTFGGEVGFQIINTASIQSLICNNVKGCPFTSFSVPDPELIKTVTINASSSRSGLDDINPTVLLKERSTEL
T2 sequence (O88430 25-92): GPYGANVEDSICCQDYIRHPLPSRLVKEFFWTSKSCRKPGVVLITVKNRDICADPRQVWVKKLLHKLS

Consider `CC(C)=CCn1cnc2c1c(=O)n(C)c(=O)n2C` [GPN279, 1,3-dimethyl-7-(3-methylbut-2-enyl)-1H-purine-2,6(3H, 7H)-dione], for which, on COX2, the “effect on COX2 activity (PGE2)” value is “no effect”.
In the case of `O=C(OCC(O)CO)c1ccccc1O` (stereo not drawn) [GPN136, 2,3-dihydroxypropyl 2-hydroxybenzoate], the half-inhibitory concentration (IC50) at mouse CCL22 was 8.1 ± 1.5 µM. On CCL22, the inhibition at 10 µM turned out to be 85.2%.

These data come from paper PMC4595804, “A strategy to discover decoy chemokine ligands with an anti-inflammatory activity” (Scientific Reports, 2015).
